{"source": "patent US20090306944A1", "about": "“DEVICE AND METHOD FOR CALCULATING AND SUPPLYING A DRUG DOSE” (BAYER TECHNOLOGY SERVICES GMBH, priority 2006, published 2009)", "origin": "cited, not measured here", "key": {"CYP1A2": {"biological_target": "T1, CYP1A2 (Homo sapiens, UniProt P05177)", "T1 sequence (P05177 1-516)": "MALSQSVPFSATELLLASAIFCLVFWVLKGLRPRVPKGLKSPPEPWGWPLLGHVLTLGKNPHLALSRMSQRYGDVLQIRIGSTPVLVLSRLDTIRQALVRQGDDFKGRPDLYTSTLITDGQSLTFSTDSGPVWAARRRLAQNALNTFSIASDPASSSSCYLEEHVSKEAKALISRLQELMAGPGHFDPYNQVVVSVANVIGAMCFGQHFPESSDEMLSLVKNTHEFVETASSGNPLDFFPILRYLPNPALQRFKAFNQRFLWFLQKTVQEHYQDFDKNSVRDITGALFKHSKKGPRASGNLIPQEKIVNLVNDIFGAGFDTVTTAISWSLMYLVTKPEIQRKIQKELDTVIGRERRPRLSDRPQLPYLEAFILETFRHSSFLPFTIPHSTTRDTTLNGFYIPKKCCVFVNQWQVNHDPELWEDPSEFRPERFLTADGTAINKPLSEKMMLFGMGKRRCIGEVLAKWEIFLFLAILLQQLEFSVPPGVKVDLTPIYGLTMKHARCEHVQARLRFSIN", "conditions": "proportion of overall clearance, reference value in an adult"}, "CYP2E1": {"biological_target": "CYP2E1 (Homo sapiens, UniProt P05181)", "sequence (P05181 whole entry)": "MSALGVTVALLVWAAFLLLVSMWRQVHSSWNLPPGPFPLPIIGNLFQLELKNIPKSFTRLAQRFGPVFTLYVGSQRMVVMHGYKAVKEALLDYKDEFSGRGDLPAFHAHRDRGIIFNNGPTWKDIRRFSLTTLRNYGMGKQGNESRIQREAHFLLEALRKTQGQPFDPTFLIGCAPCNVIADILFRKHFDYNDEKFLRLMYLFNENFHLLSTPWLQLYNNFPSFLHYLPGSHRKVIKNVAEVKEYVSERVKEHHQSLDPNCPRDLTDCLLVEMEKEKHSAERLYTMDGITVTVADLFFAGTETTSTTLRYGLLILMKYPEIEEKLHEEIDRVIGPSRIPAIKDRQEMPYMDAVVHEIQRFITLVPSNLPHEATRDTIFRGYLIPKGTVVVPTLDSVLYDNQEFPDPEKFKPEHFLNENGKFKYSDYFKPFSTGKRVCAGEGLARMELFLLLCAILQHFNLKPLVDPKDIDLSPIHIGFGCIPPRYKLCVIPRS", "conditions": "proportion of overall clearance, reference value in an adult"}, "[1]": {"conditions": "for main binding protein in the plasma: adult"}, "[2]": {"conditions": "intravenously administered"}, "[3]": {"conditions": "proportion of overall clearance, reference value in an adult"}, "UGT1A1": {"biological_target": "UGT1A1 (Homo sapiens, UniProt P22309)", "sequence (P22309 26-533)": "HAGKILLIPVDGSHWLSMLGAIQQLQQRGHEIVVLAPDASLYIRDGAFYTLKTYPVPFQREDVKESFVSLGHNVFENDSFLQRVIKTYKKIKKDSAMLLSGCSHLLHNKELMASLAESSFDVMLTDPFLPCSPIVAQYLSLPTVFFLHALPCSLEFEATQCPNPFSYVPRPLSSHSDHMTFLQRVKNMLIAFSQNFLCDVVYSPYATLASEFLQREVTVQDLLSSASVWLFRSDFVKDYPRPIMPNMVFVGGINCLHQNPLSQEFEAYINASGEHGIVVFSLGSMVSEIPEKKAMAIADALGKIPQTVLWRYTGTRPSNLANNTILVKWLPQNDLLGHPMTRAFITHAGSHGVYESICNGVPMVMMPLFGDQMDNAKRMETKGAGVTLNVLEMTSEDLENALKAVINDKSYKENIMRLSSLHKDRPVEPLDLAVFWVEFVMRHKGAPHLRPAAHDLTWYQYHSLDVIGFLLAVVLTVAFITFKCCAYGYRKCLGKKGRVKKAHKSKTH", "conditions": "proportion of overall clearance, reference value in an adult"}, "UGT2B7": {"biological_target": "T2, UGT2B7 (Homo sapiens, UniProt P16662)", "T2 sequence (P16662 24-529)": "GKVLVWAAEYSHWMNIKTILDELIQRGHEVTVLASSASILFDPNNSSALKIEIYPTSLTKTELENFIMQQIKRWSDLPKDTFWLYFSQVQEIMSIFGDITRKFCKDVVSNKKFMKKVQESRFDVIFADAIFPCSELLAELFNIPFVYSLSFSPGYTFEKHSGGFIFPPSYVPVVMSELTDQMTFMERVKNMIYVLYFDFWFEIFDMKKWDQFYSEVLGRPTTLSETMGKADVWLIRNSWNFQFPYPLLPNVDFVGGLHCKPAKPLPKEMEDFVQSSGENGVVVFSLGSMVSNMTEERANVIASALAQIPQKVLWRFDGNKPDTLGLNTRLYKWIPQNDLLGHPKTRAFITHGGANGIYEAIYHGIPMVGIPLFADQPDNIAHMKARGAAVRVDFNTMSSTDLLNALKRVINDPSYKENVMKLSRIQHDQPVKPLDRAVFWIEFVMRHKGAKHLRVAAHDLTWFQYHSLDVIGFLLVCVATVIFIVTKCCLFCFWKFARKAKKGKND", "conditions": "proportion of overall clearance, reference value in an adult"}, "CYP3A": {"system": "CYP3A", "conditions": "in vivo"}, "CYP3A4": {"biological_target": "T3, CYP3A4 (Homo sapiens, UniProt P08684)", "T3 construct": "the metabolizing enzymes in the liver; host or cells: liver enzymes of the adult, in vivo clearance", "T3 sequence (P08684 whole entry)": "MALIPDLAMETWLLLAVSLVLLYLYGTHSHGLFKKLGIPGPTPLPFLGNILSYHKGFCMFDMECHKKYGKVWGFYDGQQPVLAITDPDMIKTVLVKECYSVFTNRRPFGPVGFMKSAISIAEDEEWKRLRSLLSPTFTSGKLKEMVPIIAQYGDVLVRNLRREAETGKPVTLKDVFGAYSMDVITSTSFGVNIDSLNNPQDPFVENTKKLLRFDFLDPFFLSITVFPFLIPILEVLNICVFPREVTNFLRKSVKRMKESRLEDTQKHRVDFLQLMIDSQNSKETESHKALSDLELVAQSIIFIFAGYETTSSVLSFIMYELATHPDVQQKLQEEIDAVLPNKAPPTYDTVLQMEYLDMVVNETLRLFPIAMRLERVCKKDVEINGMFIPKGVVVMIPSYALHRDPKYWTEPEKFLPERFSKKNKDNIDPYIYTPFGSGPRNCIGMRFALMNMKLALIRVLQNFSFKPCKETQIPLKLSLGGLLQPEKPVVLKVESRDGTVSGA", "conditions": "proportion of overall clearance, reference value in an adult"}, "[4]": {"conditions": "Measured"}, "[5]": {"conditions": "proportion of overall clearance, reference value in an adult"}, "[6]": {"conditions": "with co-medication with cyclosporin"}}, "note": "Read-outs that look alike come from different tables or passages of the source.", "data": [{"molecule": "Cn1c(=O)c2c(ncn2C)n(C)c1=O", "note": "[Caffeine]", "values": [{"measurement": "Excretion process: CYP1A2", "setting": "CYP1A2", "result": "CYP1A2 (85%),"}, {"measurement": "Excretion process: CYP2E1", "setting": "CYP2E1", "result": "CPY2E1 (13%),"}, {"measurement": "Free fraction in the plasma", "setting": "[1]; reference value in an adult", "result": "70% (albumin)"}]}, {"molecule": "O=C(O)c1cn(C2CC2)c2cc(N3CCNCC3)c(F)cc2c1=O", "note": "[Ciprofloxacin]", "values": [{"measurement": "fraction renally excreted without being changed", "setting": "[2]", "result": "Approximately ⅔"}]}, {"molecule": "CN[C@@H]1[C@@H](O)[C@@H](O[C@@H]2[C@@H](O)[C@H](O[C@H]3O[C@H](CN)[C@@H](O)[C@H](O)[C@H]3O)[C@@H](N)C[C@H]2NC(=O)[C@@H](O)CN)OC[C@]1(C)O", "note": "[Isepamicin]", "values": [{"measurement": "Excretion process: Renal", "setting": "[5]", "result": "Renal (100%)"}, {"measurement": "Free fraction in the plasma", "setting": "[1]; reference value in an adult", "result": 95, "unit": "%"}]}, {"molecule": "C[C@H]1COc2c(N3CCN(C)CC3)c(F)cc3c(=O)c(C(=O)O)cn1c23", "note": "[Levofloxacin]", "values": [{"measurement": "Excretion process: Billiary", "setting": "[3]", "result": "Billiary (10%)"}, {"measurement": "Excretion process: UGT1A1", "setting": "UGT1A1", "result": "UGT1A1 (10%)"}, {"measurement": "Excretion process: Renal", "setting": "in vivo", "result": "Renal (80%)"}, {"measurement": "Free fraction in the plasma", "setting": "[1]; reference value in an adult", "result": "70% (Albumin)"}]}, {"molecule": "O=C1Nc2ccc(Cl)cc2C(c2ccccc2Cl)=NC1O", "note": "(stereo not drawn) [Lorazepam]", "values": [{"measurement": "Excretion process: UGT2B7", "setting": "UGT2B7", "result": "UGT2B7 (100%)"}, {"measurement": "Free fraction in the plasma", "setting": "[1]; plasma", "result": "8% (Albumin)"}]}, {"molecule": "Cc1ncc2n1-c1ccc(Cl)cc1C(c1ccccc1F)=NC2", "note": "[Midazolam]", "values": [{"measurement": "Excretion process: CYP3A", "setting": "CYP3A", "result": "CYP3A (100%)"}, {"measurement": "Free fraction in the plasma", "setting": "[1]; plasma", "result": "2% (Albumin)"}]}, {"molecule": "CC(=O)Nc1ccc(O)cc1", "note": "[Paracetamol]", "values": [{"measurement": "main binding protein in the plasma", "setting": "[1]", "result": "Albumin"}, {"measurement": "Free fraction in the plasma", "setting": "[1]; reference value in an adult", "result": 95, "unit": "%"}]}, {"molecule": "CCCN1CCCC[C@H]1C(=O)Nc1c(C)cccc1C", "note": "[Ropivacaine]", "values": [{"measurement": "Excretion process: CYP3A4", "setting": "CYP3A4", "result": "CYP3A4 (9%),"}, {"measurement": "Excretion process: CYP1A2", "setting": "CYP1A2", "result": "CYP1A2 (90%),"}, {"measurement": "Excretion process: Renal", "setting": "[5]", "result": "Renal (1%)"}, {"measurement": "main binding protein in the plasma", "setting": "[1]", "result": "α1-Glycoprotein"}, {"measurement": "Free fraction in the plasma", "setting": "[1]; reference value in an adult", "result": 5, "unit": "%"}]}, {"molecule": "Cn1c(=O)c2[nH]cnc2n(C)c1=O", "note": "[Theophylline]", "values": [{"measurement": "Excretion process: CYP1A2", "setting": "CYP1A2", "result": "CYP1A2 (60%),"}, {"measurement": "Excretion process: Renal", "setting": "[5]", "result": "Renal (15%)"}, {"measurement": "Excretion process: CYP2E1", "setting": "CYP2E1", "result": "CYP2E1 (25%),"}]}, {"molecule": "CC(=O)O[C@H]1C(=O)[C@@]2(C)[C@H]([C@H](OC(=O)c3ccccc3)[C@]3(O)C[C@H](OC(=O)[C@H](O)[C@@H](NC(=O)c4ccccc4)c4ccccc4)C(C)=C1C3(C)C)[C@]1(OC(C)=O)CO[C@@H]1C[C@@H]2O", "note": "[paclitaxel, Paclitaxel]", "values": [{"measurement": "AUC", "setting": "[4]; [6]", "result": "1.7 ± 0.9", "unit": "µM·h"}, {"measurement": "Cmax", "setting": "[4]; [6]", "result": "200 ± 100", "unit": "nM"}, {"measurement": "T > 0.1 μM", "setting": "[4]; [6]", "result": "3.7 ± 2.3", "unit": "h"}, {"measurement": "T > 0.5 μM", "setting": "[4]; [6]", "result": "7.4 ± 4.4", "unit": "h"}, {"measurement": "AUC", "setting": "[4]; without co-medication", "result": "0.2 ± 0.1", "unit": "µM·h"}, {"measurement": "T > 0.1 μM", "setting": "[4]; without co-medication", "result": 0, "unit": "h"}, {"measurement": "T > 0.5 μM", "setting": "[4]; without co-medication", "result": "1.2 ± 0.9", "unit": "h"}, {"measurement": "Cmax", "setting": "[4]; without co-medication, rounded-up value", "result": 100, "unit": "nM"}]}, {"molecule": "Gentamicin", "values": [{"measurement": "Free fraction in the plasma", "setting": "[1]; plasma", "result": 95, "unit": "%"}]}]}
